Counter-ions that a name gives are not always drawn.
Target: T1, full length SGK1 (Homo sapiens, UniProt O00141)
T1 construct: 125 μM full length SGK1 (Life Technologies Part #PR7358A); purchased Life Technologies PR7358A
T1 sequence (O00141 1-431): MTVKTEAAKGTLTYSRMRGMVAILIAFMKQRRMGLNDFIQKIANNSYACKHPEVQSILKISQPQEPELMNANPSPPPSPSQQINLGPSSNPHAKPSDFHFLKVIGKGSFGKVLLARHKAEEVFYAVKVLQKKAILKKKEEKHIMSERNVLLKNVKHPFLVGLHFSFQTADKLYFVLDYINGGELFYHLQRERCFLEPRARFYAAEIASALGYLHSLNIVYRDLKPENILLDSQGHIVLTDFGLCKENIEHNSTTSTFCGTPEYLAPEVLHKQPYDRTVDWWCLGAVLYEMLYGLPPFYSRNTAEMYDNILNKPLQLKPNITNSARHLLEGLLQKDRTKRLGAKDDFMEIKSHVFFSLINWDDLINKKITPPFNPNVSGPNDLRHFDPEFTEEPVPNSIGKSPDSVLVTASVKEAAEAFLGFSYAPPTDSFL
Assay: SGK1 inhibition Assay A (Caliper LabChip electrophoretic separation of fluorescent peptide substrate and phosphorylated product)
Format: biochemical
Details: Assay A; 20 μM ATP, 40 min incubation; read-out: SGK1 IC50

SMILES	IC50 [nM]
CN(C)CCOc1cc(Cl)sc1C(=O)N[C@@H]1CCCN(c2cc(-c3ccc4ncnn4c3)n3ncnc(N)c23)C1 [Example 193, (R)-N-(1-(7-([1,2,4]triazolo{1,5-a]pyridin-6-yl)-4-aminopyrrolo[2,1-f][1,2,4]triazin-5-yl)piperidin-3-yl)-5-chloro-3-(2-(dimethylamino)ethoxy) thiophene-2-carboxamide]	25
CC(=O)N1CC=C(c2cc(N3CCC[C@@H](NC(=O)c4cccc(N5CCN(C)CC5)c4)C3)c3c(N)ncnn23)C1 [Example 735, (R)-N-(1-(7-(1-acetyl-2,5-dihydro-1H-pyrrol-3-yl)-4-aminopyrrolo[2,1-f][1,2,4]triazin-5-yl)piperidin-3-yl)-3-(4-methylpiperazin-1-yl)benzamide]	21
CS(=O)(=O)c1ccc(-c2cc(N3CCC[C@@H](C(=O)Nc4nccs4)C3)c3c(N)ncnn23)cc1 [Example 104, (R)-1-(4-amino-7-(4-(methylsulfonyl)phenyl)pyrrolo[2,1-f][1,2,4]triazin-5-yl)-N-(thiazol-2-yl)piperidine-3-carboxamide]	247
CS(=O)(=O)c1ccc(-c2cc(N3CCC[C@@H](NC(=O)c4cn5c(n4)CCCC5)C3)c3c(N)ncnn23)cc1 [Example 44]	735
CN(C)CCOc1c(C(=O)N[C@@H]2CCCN(c3cc(-c4ccc(C(N)=O)nc4)n4ncnc(N)c34)C2)sc2ccncc12 [Example 670, (R)-N-(1-(4-amino-7-(6-carbamoylpyridin-3-yl)pyrrolo[2,1-f] [1,2,4]triazin-5-yl)piperidin-3-yl)-3-(2-(dimethylamino)ethoxy)thieno [3,2-c]pyridine-2-carboxamide]	40
CC(=O)N1CC=C(c2cc(N3CCC[C@@H](NC(=O)c4ccc(-c5cnc(C#N)nc5)s4)C3)c3c(N)ncnn23)C1 [Example 552, (R)-N-(1-(7-(1-acetyl-2,5-dihydro-1H-pyrrol-3-yl)-4-aminopyrrolo[2,1-f][1,2,4]triazin-5-yl)piperidin-3-yl)-5-(2-cyanopyrimidin-5-yl)thiophene-2-carboxamide]	27
CS(=O)(=O)c1ccc(-c2cc(N3CCC[C@@H](NC(=O)c4ccnc(C#N)c4)C3)c3c(N)ncnn23)cc1 [Example 47, (R)-N-(1-(4-amino-7-(4-(methylsulfonyl)phenyl)pyrrolo[2,1-f][1,2,4]triazin-5-yl)piperidin-3-yl)-2-cyanoisonicotinamide, TFA]	44
N#Cc1ccc(-c2cc(N3CCC[C@@H](NC(=O)c4sc(C(F)F)cc4N4CCOCC4)C3)c3c(N)ncnn23)cn1 [Example 318, (R)—N-(1-(4-amino-7-(6-cyanopyridin-3-yl)pyrrolo[2,1-f][1,2,4]triazin-5-yl)piperidin-3-yl)-5-(difluoromethyl)-3-morpholinothiophene-2-carboxamide]	15
Nc1ncnn2c(-c3ccc(=O)[nH]c3)cc(N3CCC[C@@H](NC(=O)c4ccc(C(F)F)s4)C3)c12 [Example 526, (R)-N-(1-(4-amino-7-(6-oxo-1,6-dihydropyridin-3-yl)pyrrolo[2,1-f][1,2,4]triazin-5-yl)piperidin-3-yl)-5-(difluoromethyl)thiophene-2-carboxamide]	190
CC(=O)N1CC=C(c2cc(N3CCC[C@@H](NC(=O)c4sc5ccccc5c4OCCN(C)C)C3)c3c(N)ncnn23)C1 [Example 662, (R)-N-(1-(7-(1-acetyl-2,5-dihydro-1H-pyrrol-3-yl)-4-aminopyrrolo[2,1-f][1,2,4]triazin-5-yl)piperidin-3-yl)-3-(2-(dimethylamino)ethoxy)benzo[b]thiophene-2-carboxamide]	16
CC(=O)N1CC=C(c2cc(N3CCC[C@@H](NC(=O)c4cnccn4)C3)c3c(N)ncnn23)C1 [Example 446, (R)-N-(1-(7-(1-acetyl-2,5-dihydro-1H-pyrrol-3-yl)-4-aminopyrrolo[2,1-][1,2,4]triazin-5-yl)piperidin-3-yl)pyrazine-2-carboxamide]	126

Now those with a lower IC50, led by results:

IC50 [nM]	SMILES
14	CC(=O)N1CC=C(c2cc(N3CCC[C@@H](NC(=O)c4sc(Cl)cc4OCCNCC(F)F)C3)c3c(N)ncnn23)C1 [Example 301, (R)-N-(1-(7-(1-acetyl-2,5-dihydro-1H-pyrrol-3-yl)-4-aminopyrrolo[2,1-f][1,2,4]triazin-5-yl)piperidin-3-yl)-5-chloro-3-(2-((2,2-difluoroethyl)amino)ethoxy)thiophene-2-carboxamide]
10	Nc1ncnn2c(C3=CCN(C(=O)C4CCOCC4)C3)cc(N3CCC[C@@H](NC(=O)c4ccc(Cl)s4)C3)c12 [Example 898, (R)-N-(1-(4-amino-7-(1-(tetrahydro-2H-pyran-4-carbony1)-2,5-dihydro-1H-pyrrol-3-yl)pyrrolo[2,1-f][1,2,4]triazin-5-y1)piperidin-3-y1)-5-chlorothiophene-2-carboxamide]
9	COC(=O)N1CC=C(c2cc(N3CCC[C@@H](NC(=O)c4sc(C(F)F)cc4OCCN4CCN(C)CC4)C3)c3c(N)ncnn23)C1 [Example 334, Methyl (R)-3-(4-amino-5-(3-(5-(difluoromethyl)-3-(2-(4-methylpiperazin-1-yl)ethoxy)thiophene-2-carboxamido)piperidin-1-yl)pyrrolo[2,1-f][1,2,4]triazin-7-yl)-2,5-dihydro-1H-pyrrole-1-carboxylate]
9	CN1CCC(Oc2cc(Cl)sc2C(=O)N[C@@H]2CCCN(c3cc(-c4cncnc4)n4ncnc(N)c34)C2)CC1 [Example 585, (R)-N-(1-(4-amino-7-(pyrimidin-5-yl)pyrrolo[2,1-f][1,2,4]triazin-5-yl)piperidin-3-yl)-5-chloro-3-((1-methylpiperidin-4-yl)oxy)thiophene-2-carboxamide]
6	Nc1ncnn2c(C3=CCN(C(=O)[C@H]4CCOC4)C3)cc(N3CCC[C@@H](NC(=O)c4ccc(Cl)s4)C3)c12 [Example 888, N-((R)-1-(4-amino-7-(1-((S)-tetrahydrofuran-3-carbonyl)-2,5-dihydro-1H-pyrrol-3-yl)pyrrolo[2,1-f][1,2,4]triazin-5-yl)piperidin-3-y1)-5-chlorothiophene-2-carboxamide]
5	CC(=O)N1CC=C(c2cc(N3CCC[C@@H](NC(=O)c4sc(Cl)cc4OC4CC5(CNC5)C4)C3)c3c(N)ncnn23)C1 [Example 580]
4	Cc1cc(-c2cc(N3CCC[C@@H](NC(=O)c4ccc(Cl)s4)C3)c3c(N)ncnn23)ccn1 [Example 132, N-[(3R)-1-[4-amino-7-(2-methylpyridin-4-yl)pyrrolo[2,1-f][1,2,4]triazin-5-yl]piperidin-3-yl)-5-chlorothiophene-2-carboxamide]
4	Nc1ncnn2c(-c3ccnc(C(F)F)c3)cc(N3CCC[C@@H](NC(=O)c4sc(Cl)cc4OC4CCNC4)C3)c12 (stereo partly drawn) [Example 586, N-((R)-1-(4-amino-7-(2-(difluoromethyl)pyridin-4-yl)pyrrolo[2,1-f][1,2,4]triazin-5-yl)piperidin-3-yl)-5-chloro-3-(pyrrolidin-3-yloxy)thiophene-2-carboxamide]
3	CN(C)CCOc1cc(Cl)sc1C(=O)N[C@@H]1CCCN(c2cc(-c3ccn4nnnc4c3)n3ncnc(N)c23)C1 [Example 186, (R)—N-(1-(4-amino-7-(tetrazolo[1,5-a]pyridin-7-yl)pyrrolo[2,1-f][1,2,4]triazin-5-yl)piperidin-3-yl)-5-chloro-3-(2-(dimethylamino)ethoxy)thiophene-2-carboxamide]
3	CN(C)CCOc1cc(C(F)F)sc1C(=O)N[C@@H]1CCCN(c2cc(-c3ccc(C#N)nc3)n3ncnc(N)c23)C1 [Example 310, (R)-N-(1-(4-amino-7-(6-cyanopyridin-3-yl)pyrrolo[2,1-f] [1,2,4]triazin-5-yl)piperidin-3-yl)-5-(difluoromethyl)-3-(2-(dimethylamino)ethoxy)thiophene-2-carboxamide]
3	COC(=O)N1CC=C(c2cc(N3CCC[C@@H](NC(=O)c4sc(C5CC5)cc4OC4CNC4)C3)c3c(N)ncnn23)C1 [Example 388, methyl (R)-3-(4-amino-5-(3-(3-(azetidin-3-yloxy)-5-cyclopropylthiophene-2-carboxamido)piperidin-1-yl)pyrrolo[2,1-f][1,2,4]triazin-7-yl)-2,5-dihydro-1H-pyrrole-1-carboxylate]
2	Nc1ncnn2c(-c3ccnc(F)c3)cc(N3CCC[C@@H](NC(=O)c4ccsc4)C3)c12 [Example 155, (R)-N-(1-(4-amino-7-(2-fluoropyridin-4-yl)pyrrolo[2,1-f][1,2,4]triazin-5-yl)piperidin-3-yl)thiophone-3-carboxamide]
2	CS(=O)(=O)c1ccc(-c2cc(N3CCC[C@@H](NC(=O)c4ccc(Cl)s4)C3)c3c(N)ncnn23)cn1 [Example 226, N-[(3R)-1-[4-amino-7-(6-methanesulfonylpyridin-3-yl)pyrrolo[2,1-f][1,2,4]triazin-5-yl]piperidin-3-yl]-5-chlorothiophene-2-carboxamide]
1	COC(=O)N1CC=C(c2cc(N3CCC[C@@H](NC(=O)c4sc(Cl)cc4OC4CCNC(C)(C)C4)C3)c3c(N)ncnn23)C1 (mixture of isomers) [Example 628, methyl 3-(4-amino-5-((3R)-3-(5-chloro-3-((2,2-dimethylpiperidin-4-yl)oxy)thiophene-2-carboxamido)piperidin-1-yl)pyrrolo[2,1-f][1,2,4]triazin-7-y1)-2,5-dihydro-1H-pyrrole-1-carboxylate]
